Measured values: patent US20030166001A1, “Toll-like receptor 3 signaling agonists and antagonists” (priority 2001, published 2003)
In the oligonucleotide strings, read from the 5' end, every base follows the letter of its sugar. An asterisk marks phosphorothioate; unmarked linkages are phosphodiester. Other units and linkages are bracketed, terminal groups are in braces. A string of capitals states the bases alone. d = 2'-deoxy (DNA)

Key:
murine TLR9 [1] = molecular target: T1, murine TLR9 (Mus musculus, UniProt Q9EQU3); assay: 293 fibroblasts stably transfected with murine TLR9 and NF-κB-luciferase reporter, ODN stimulation; details: for EC50: read-out: EC50 (concentration of the ligand stimulus that results in 50% maximal activation), NF-κB luciferase induction, stimulated for 16 hours, ODN titrated between 10 μM and 2 nM, FIG. 6; for course of activity (EC50) curves with time: ODN with less stable diester linkages
T1 sequence (Q9EQU3 26-1032): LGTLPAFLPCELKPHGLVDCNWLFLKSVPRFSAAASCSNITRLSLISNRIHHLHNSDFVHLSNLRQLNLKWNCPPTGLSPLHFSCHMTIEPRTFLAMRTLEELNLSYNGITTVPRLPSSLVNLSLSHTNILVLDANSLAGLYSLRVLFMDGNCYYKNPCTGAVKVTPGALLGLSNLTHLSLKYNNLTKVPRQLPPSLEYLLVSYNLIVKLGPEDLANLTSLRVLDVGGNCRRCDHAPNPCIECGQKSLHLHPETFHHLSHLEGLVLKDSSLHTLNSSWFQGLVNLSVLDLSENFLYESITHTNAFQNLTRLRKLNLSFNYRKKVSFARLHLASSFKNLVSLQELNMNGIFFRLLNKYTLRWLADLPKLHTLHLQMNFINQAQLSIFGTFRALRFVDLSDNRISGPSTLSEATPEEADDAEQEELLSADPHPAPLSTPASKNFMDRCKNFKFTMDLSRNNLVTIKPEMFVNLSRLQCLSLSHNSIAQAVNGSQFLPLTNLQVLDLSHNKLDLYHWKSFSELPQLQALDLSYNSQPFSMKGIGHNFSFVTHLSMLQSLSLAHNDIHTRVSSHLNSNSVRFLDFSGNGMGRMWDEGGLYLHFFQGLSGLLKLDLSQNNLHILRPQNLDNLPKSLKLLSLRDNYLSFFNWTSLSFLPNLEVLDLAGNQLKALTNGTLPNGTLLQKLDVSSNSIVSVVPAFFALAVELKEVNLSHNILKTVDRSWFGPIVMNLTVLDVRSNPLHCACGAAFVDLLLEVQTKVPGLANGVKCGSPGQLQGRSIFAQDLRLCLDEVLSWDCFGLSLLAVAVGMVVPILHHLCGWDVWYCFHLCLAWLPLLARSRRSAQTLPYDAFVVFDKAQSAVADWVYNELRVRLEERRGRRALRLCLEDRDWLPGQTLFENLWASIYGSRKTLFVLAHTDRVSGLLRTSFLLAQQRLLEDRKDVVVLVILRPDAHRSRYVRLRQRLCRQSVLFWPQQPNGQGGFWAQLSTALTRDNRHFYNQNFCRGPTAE
Description: (§1) Human 293 fibroblast cells stably transfected with murine TLR9 and an NF-κB-luciferase reporter were stimulated for 16 hours with the following fully phosphorothioated oligodeoxynucleotides (ODN):
(§2) Concentration of the stimulus was titrated between 10 μM and 2 nM. […] EC50 is defined as the concentration of the ligand stimulus that results in 50% maximal activation.
(§3) A family of stimulation curves was determined at various times of assay incubation between 1 and 24 hours. The EC50 was determined for each ligand at each time point.

murine TLR9 [2] = molecular target: T1, murine TLR9
Description: as §1, §2, §3

hTLR9 = molecular target: T2, hTLR9 (Homo sapiens, UniProt Q9NR96); assay: 293 fibroblasts transiently transfected with hTLR9, NF-κB-luc readout or IL-8 ELISA; type: cell-based; details: CpG-ODN 2006 2 μM, LPS 100 ng/ml; 8 h luciferase, 48 h IL-8; FIG. 1
T2 construct: expressed in transfected cells; host or cells: human 293 fibroblasts (ATCC CRL-1573), transient transfection by the calcium phosphate method
T2 sequence (Q9NR96 26-1032): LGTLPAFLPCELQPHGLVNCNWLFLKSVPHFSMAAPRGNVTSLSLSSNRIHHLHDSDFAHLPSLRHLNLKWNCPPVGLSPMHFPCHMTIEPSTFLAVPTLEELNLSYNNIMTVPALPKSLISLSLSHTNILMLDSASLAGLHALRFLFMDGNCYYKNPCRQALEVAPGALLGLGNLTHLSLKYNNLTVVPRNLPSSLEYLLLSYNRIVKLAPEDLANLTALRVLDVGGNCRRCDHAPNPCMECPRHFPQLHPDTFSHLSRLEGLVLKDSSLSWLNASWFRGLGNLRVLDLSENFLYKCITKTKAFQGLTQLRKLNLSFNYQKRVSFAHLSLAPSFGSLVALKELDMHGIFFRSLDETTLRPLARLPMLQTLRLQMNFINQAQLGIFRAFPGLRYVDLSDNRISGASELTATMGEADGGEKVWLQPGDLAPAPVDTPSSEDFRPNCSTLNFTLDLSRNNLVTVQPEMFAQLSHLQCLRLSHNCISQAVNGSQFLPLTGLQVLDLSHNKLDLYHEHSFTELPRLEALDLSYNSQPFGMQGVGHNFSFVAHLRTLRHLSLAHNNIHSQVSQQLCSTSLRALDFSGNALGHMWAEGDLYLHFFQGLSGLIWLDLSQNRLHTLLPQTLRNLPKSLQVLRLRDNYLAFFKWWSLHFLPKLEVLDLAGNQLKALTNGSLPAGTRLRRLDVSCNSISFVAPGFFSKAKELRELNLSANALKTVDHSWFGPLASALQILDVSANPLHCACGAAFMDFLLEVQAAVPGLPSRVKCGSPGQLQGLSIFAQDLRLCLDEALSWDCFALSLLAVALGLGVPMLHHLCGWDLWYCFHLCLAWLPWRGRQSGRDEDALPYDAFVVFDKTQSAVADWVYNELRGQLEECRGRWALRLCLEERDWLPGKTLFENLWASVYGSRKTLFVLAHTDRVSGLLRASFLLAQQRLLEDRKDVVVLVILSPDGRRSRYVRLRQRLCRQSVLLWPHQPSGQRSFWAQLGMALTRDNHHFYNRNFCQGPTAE
Description: Methods for cloning murine and human TLR9 have been described in pending U.S. patent application Ser. No. 09/954,987 and corresponding published PCT application PCT/US01/29229, both filed Sep. 17, 2001, the contents of which are incorporated by reference. Human TLR9 cDNA and murine TLR9 cDNA in pT-Adv vector (from Clonetech) were individually cloned into the expression vector pcDNA3.1(−) from Invitrogen using the EcoRI site. Utilizing a “gain of function” assay it was possible to reconstitute human TLR9 (hTLR9) and murine TLR9 (mTLR9) signaling in CpG-DNA non-responsive human 293 fibroblasts (ATCC, CRL-1573). The expression vectors mentioned above were transfected into 293 fibroblast cells using the calcium phosphate method.
Since NF-κB activation is central to the IL-1/TLR signal transduction pathway (Medzhitov R et al. (1998) Mol Cell 2:253-258 (1998); Muzio M et al. (1998) J Exp Med 187:2097-101), cells were transfected with hTLR9 or co-transfected with hTLR9 and an NF-κB-driven luciferase reporter construct. […] After stimulus with CpG-ODN (2006, 2 μM, […], SEQ ID NO:15), GpC-ODN (2006-GC, 2 μM, […], SEQ ID NO:16), LPS (100 ng/ml) or media, NF-κB activation by luciferase readout (8 h, FIG. 1A) or IL-8 production by ELISA (48 h, FIG. 1B) were monitored. […]

[3] = assay incubation between 1 and 24 hours, FIG. 7

## T*C*C*A*T*G*A*C*G*T*T*T*T*T*G*A*T*G*T*T (TCCATGACGTTTTTGATGTT; chemistry not given here) [ODN 5890]
Murine TLR9 [1]; [3]
  affinity of ligand/receptor interaction from EC50 versus time curves: higher affinity
Murine TLR9 [1]
  EC50: 42 nM
Murine TLR9 [2]
  maximal activity (maximal fold induction) versus time: less efficient at delivering high activity

## T*C_G*T*C_G*T*T*T*T_G*T*C_G*T*T*T*T*G*T*C_G*T*T [ODN 5746]
Murine TLR9 [1]; [3]
  course of activity (EC50) curves with time: turn upward with time

## T*C*G*T*C*G*T*T*T*T*G*T*C*G*T*T*T*T*G*T*C*G*T*T [ODN 2006]
hTLR9
  response of cells expressing hTLR9 (NF-κB activation by luciferase readout, IL-8 production by ELISA): responded

## T*C*G*T*C*G*T*T*T*T_G_T_C_G_T*T*T*T*G*T*C*G*T*T [ODN 5497]
Murine TLR9 [1]; [3]
  course of activity (EC50) curves with time: turn upward with time

## T*C*C*A*T*G*A*C_G_T*T*T*T*T*G*A*T_G*T*T [ODN 5902]
Murine TLR9 [1]; [3]
  course of activity (EC50) curves with time: turn upward with time

## lipopolysaccharide [LPS]
hTLR9
  response of cells expressing hTLR9 (NF-κB activation by luciferase readout, IL-8 production by ELISA): not

## T*C*C*A*T*G*A*C*G*T*T*T*T*T (dT*dC*dC*dA*dT*dG*dA*dC*dG*dT*dT*dT*dT*dT) [ODN 5897]
Murine TLR9 [1]
  EC50: 1220 nM
